Measurements reported in publication PMC6337594 (2018).

Assays:
[1] = test system: Tel48 (DNA, G4) TTAGGGTTAGGGTTAGGGTTAGGGTTAGGGTTAGGGTTAGGGTTAGGG; assay: CD, ligand-induced G4 formation; settings: no K+; Tris buffer, 25 °C; 4 µM Tel48, 8 µM compound
[2] = test system: biotinylated Tel48 (DNA, G4) TTAGGGTTAGGGTTAGGGTTAGGGTTAGGGTTAGGGTTAGGGTTAGGG; assay: bio-layer interferometry, kinetic; settings: 100 mM K+; 10 mM Tris, 25 °C; two-site model, Kb = ka/kd; immobilised Tel48
[3] = test system: CMA (DNA, G4) TAGGGAGGGTAGGGAGGGT; assay: gel mobility shift; settings: 100 mM K+; 40 µM CMA, 80 µM compound
[4] = test system: LD12 (DNA, duplex) GCGCAATTGCGC; assay: fluorescence enhancement; pre-stained gel; settings: 100 mM K+; 15 µM H33258, 15 µM LD12
[5] = test system: Tel48 (DNA, G4) TTAGGGTTAGGGTTAGGGTTAGGGTTAGGGTTAGGGTTAGGGTTAGGG; assay: CD melting; settings: 100 mM K+; 10 mM Tris-HCl pH 7.5; compound concentration not stated

Row | Structure (SMILES) | binding [1] | Kb [2] | binding [3] | dTm [5] | binding [4]
1 | CN1CCN(c2ccc3nc(-c4ccc5nc(-c6ccc(O)cc6)[nH]c5c4)[nH]c3c2)CC1 |  |  |  | ~ 4 °C | yes
2 | C[n+]1ccccc1/C=C/c1ccc2[nH]c3ccc(/C=C/c4cccc[n+]4C)cc3c2c1 | yes | 2.38e+06 M⁻¹ | yes |  | 
3 | C[n+]1ccnc(/C=C/c2ccc3[nH]c4ccc(/C=C/c5c[n+](C)ccn5)cc4c3c2)c1 |  | 529000 M⁻¹ | yes |  | 
4 | NCCOc1cc(C(=O)Nc2cc(OCCN)c3ccccc3n2)nc(C(=O)Nc2cc(OCCN)c3ccccc3n2)c1 | yes |  |  | ~ 2 °C | 

Further lines, with some results ahead:

Row | binding [1] | Kb [2] | binding [3] | dTm [5] | Structure (SMILES) | binding [4]
5 | yes | 9.84e+06 M⁻¹ | yes |  | CN(C)c1ccc(Nc2c3ccc(NC(=O)CCN4CCCC4)cc3nc3cc(NC(=O)CCN4CCCC4)ccc23)cc1 | 
6 | yes | 1.55e+07 M⁻¹ | yes | ~ 10 °C | C[n+]1ccc(-c2c3nc(c(-c4cc[n+](C)cc4)c4ccc([nH]4)c(-c4cc[n+](C)cc4)c4nc(c(-c5cc[n+](C)cc5)c5ccc2[nH]5)C=C4)C=C3)cc1 | 
